Measured values reported in patent US8901042B2, “High throughput screen for measuring membrane effects” (Cornell University, priority 2009, dated 2014).
Where two headings read alike, the source gives them in different places.

How the values were obtained:
[1] = system: gramicidin A (gA) channels in DC22:1PC lipid bilayer vesicles; assay: gramicidin-based stopped-flow fluorescence quench assay (Tl+ influx into ANTS-filled, gA-doped LUVs); type: biochemical, Bacillus brevis; settings: for rate of quencher influx (rate of stretched exponential): 260 nM gA, mean±SD, n>10, control 36±6; for Flourescence: concentration at which the molecules double/half the rate of the fluorescence quenching: fitted stretched exponential, rate at 2 ms, DC22:1PC LUVs
Description: 24 hours before fluorescence measurements, ANTS-filled liposomes were mixed 1:20 in S_Na_Buffer. For the portion of liposomes that are to be doped with gramicidin, the desired amount of gramicidins was added at this time. […] Gramicidin diluted in DMSO was used, but the added DMSO was kept to an absolute minimum (<0.1% of volume) as DMSO of >0.5% affects bilayer properties. The solution was stored at 12-13° C. in the dark.
The modifier in question was diluted in DMSO. The same amount of DMSO was added to all samples, including control.
For each condition: • 1. Use 1.5 mL of diluted ANTS-liposomes for each condition (compound, concentration). • 2. Add compound at the desired concentration and incubate for 10 min at 25° C. (keep in dark), or DMSO for controls. • 3. Record fluorescence, x8 repeats, with S_Na_Buffer (the first four should be removed due to mixing). • 4. Record fluorescence, x12 repeats, with S_Tl_Quencher (the first four should also be removed due to mixing).
Generate fluorescent liposomes. […] 1,2-Dierucoyl-sn-Glycero-3-Phosphocholine lipids, from Avanti Polar Lipids (Alabaster, Ala.), were bought in a lipid/chloroform solution and used without further purification. For each batch of vesicles, the lipid/chloroform solution was dried under nitrogen and then further dried in a dessicator under vacuum overnight to fully remove the chloroform. The dried lipid film was rehydrated in 100 mM NaNO3, 25 mM ANTS, 10 mM HEPES at pH 7.0 at room temperature over night, volume was adjusted to give a 10 mM lipid concentration. The suspension was then sonicated in a low power sonicator for 1 min, subjected to 5-6 freeze thaw cycles and extruded 21 times, at room temperature, using Avanti mini-extruder, Avanti Polar Lipids (Alabaster, Ala.), and a 0.1 μm Polycarbonate Membrane filter. External ANTS was removed by filtering though a PD-10 Desalting column, GE Healthcare (Piscataway, N.J.). Prepared ANTS-LUV stock was stored at 12-13° C. in the dark for a maximum of seven days. Before the fluorescence experiments ANTS-LUV stock was diluted 1:20 with 140 mM NaNO3, 10 mM HEPES, pH 7.0 buffer. For the portion of vesicles to be doped with gA the desired amount of gramicidin from Bacillus aneurinolyticus, Sigma Chemical Co. (St. Louis, Mo.), diluted in dimethylsulfoxide (DMSO) was added and incubated for 24 hours at 12-13° C. in the dark.
The final DMSO concentrations were kept consistent for all samples and under 0.5% with the exception of when DMSO was tested, then listed amounts where used and no DMSO was added to controls.
The fluorescence was measured using a SX.20 Stopped-Flow Spectrometer (Applied Photophysics, Leatherhead, UK), with a 150-W Xenon lamp, a two sample rapid mixing unit with machine dead time˜1.2 ms and a thermostatting water bath set to 25° C. The samples were excited at X=352 nm and fluorescence was recorded though λ=455 nm high pass filter with Pro-Data control software from Applied Photophysics, sampling 5000 points a second. For each sample at least 10 repeated mixing trials were measured, from two or more vesicle preparations. Each repeat was separately analyzed using MATLAB v7.4, The MathWorks, Inc (Natick, Mass.). The time course of fluorescence quenching was normalized to the average fluorescence without quencher, for that particular sample, and the first 2-100 ms of the time course was fitted with a stretched exponential. The initial influx rate is quantified as the rate of the stretched exponential at 2 ms.

Shaker potassium channel = Shaker potassium channel (Drosophila melanogaster, UniProt P08510); settings: cited from earlier work
Chain of Shaker potassium channel (P08510 whole entry): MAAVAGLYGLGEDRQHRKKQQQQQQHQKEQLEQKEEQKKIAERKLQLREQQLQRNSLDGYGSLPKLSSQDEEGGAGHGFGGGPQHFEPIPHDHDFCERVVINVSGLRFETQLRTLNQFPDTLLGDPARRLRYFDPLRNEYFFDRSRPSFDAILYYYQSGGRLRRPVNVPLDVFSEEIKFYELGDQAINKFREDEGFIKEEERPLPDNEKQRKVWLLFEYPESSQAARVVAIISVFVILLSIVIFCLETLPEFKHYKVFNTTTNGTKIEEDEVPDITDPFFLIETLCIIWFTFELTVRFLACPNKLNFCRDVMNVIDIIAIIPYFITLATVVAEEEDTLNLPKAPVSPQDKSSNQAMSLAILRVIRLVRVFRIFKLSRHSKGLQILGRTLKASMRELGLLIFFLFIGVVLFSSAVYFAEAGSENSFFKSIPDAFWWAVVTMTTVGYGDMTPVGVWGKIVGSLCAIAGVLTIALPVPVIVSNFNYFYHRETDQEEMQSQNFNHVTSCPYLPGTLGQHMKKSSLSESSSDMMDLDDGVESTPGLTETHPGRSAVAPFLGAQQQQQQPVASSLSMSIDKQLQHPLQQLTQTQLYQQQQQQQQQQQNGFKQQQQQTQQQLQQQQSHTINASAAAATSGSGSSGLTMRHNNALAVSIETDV

[2] = system: gA channel in DC18:1PC/n-decane bilayers; settings: cited from earlier work; for Single channel: concentration at which the molecule double/half gA channel lifetime: standard bilayer-punch electrophysiological methods

Compound	Flourescence: concentration at which the molecules double/half the rate of the fluorescence quenching [1]	Single channel: concentration at which the molecule double/half gA channel lifetime [2]	other results
NCCc1c(SSc2[nH]c3cc(Br)ccc3c2CCN)[nH]c2cc(Br)ccc12 [BrMT]			effect on lipid bilayer properties (gA channel activity, stopped-flow) ([1]; stopped-flow experiments): altered lipid bilayer properties; Shaker potassium channel activation (Shaker potassium channel): slows
COc1cc(CNC(=O)CCCC/C=C/C(C)C)ccc1O [Capsaicin]	21	25 µM	rate of quencher influx (rate of stretched exponential) ([1]; 10 μM capsaicin): 69±6; rate of quencher influx (rate of stretched exponential) ([1]; 30 μM capsaicin): 85±8; rate of quencher influx (rate of stretched exponential) ([1]; 90 μM capsaicin): 247±27; rate of fluorescence quenching (Tl+ influx) in the presence of gramicidin ([1]; 10, 30, 90 μM, concentration dependent): increased
Oc1cc2c(cc1O)CN(C(=S)NCCc1ccc(Cl)cc1)CCC2 [Capsazepine]	16	4 µM	
C[S+](C)[O-] [Dimethyl sulfoxide]	340,000		amount that affects bilayer properties ([1]; % of volume): > 0.5%; Single channel: concentration at which the molecule double/half gA channel lifetime ([2]; in µM): >410,000
[Gd+3] [Gd^3+]	<1000	> 30 µM	
O=c1c(-c2ccc(O)cc2)coc2cc(O)cc(O)c12 [Genistein]	22	25 µM	
O=c1c(-c2ccc(O)cc2)coc2cc(O[C@@H]3O[C@H](CO)[C@@H](O)[C@H](O)[C@H]3O)cc(O)c12 [Genistin]	910	>>30	
OC(c1cc(C(F)(F)F)nc2c(C(F)(F)F)cccc12)C1CCCCN1 (centres unmarked) [Mefloquine]	37	6 µM	gA channel frequency ([2]; single-channel electrophysiology): decreases
CCCCCCCCO[C@@H]1O[C@H](CO)[C@@H](O)[C@H](O)[C@H]1O [β-octylglucoside]	325	270 µM	
(−)-epigallocatechin gallate	12	0.25 µM	effect on gA channel conductance ([2]; single-channel): causes conductance flickers or sub-conductance states
Triton X-100	13	9 µM	
